What was measured:
Assay in all cases: X-ray crystal structure, […] Å
Format in all cases: binding
WlaRD (C8J_1081) [1] = biological target: T1, WlaRD (C8J_1081) (Campylobacter jejuni, UniProt Q9ALS6)
WlaRD (C8J_1081) [2] = biological target: T1, WlaRD (C8J_1081); remark: listed apart in the source
WlaRD (C8J_1081) [3] = biological target: T1, WlaRD (C8J_1081); settings: complex with N^5-formyl-THF

In the case of `Nc1nc2c(c(=O)[nH]1)N(C=O)[C@@H](CNc1ccc(C(=O)N[C@@H](CCC(=O)O)C(=O)O)cc1)CN2` [N^5-formyl-THF], the “X-ray crystal structure, 1.4 Å (cocrystal)” value (WlaRD (C8J_1081) [1]; complex with dTDP, not catalytically competent cofactor analog) is reported as “that of the enzyme complexed with N^5-formyl-THF and dTDP”.
In the case of `Nc1nc2c(c(=O)[nH]1)N[C@@H](CNc1ccc(C(=O)N[C@@H](CCC(=O)O)C(=O)O)cc1)CN2` [THF], the “X-ray crystal structure, 1.9 Å (soak, turnover in crystal)” value (WlaRD (C8J_1081) [2]; complex with dTDP-Qui3N (subunit A) or dTDP-Qui3NFo (subunit B)) is reported as “In subunit A, THF and dTDP-Qui3N were observed”.
`Cc1cn([C@H]2C[C@H](O)[C@@H](COP(=O)(O)OP(=O)(O)O[C@H]3O[C@H](C)[C@H](O)[C@H](NC=O)[C@H]3O)O2)c(=O)[nH]c1=O` [dTDP-Fuc3NFo] was tested, and the “X-ray crystal structure, 1.45 Å (cocrystal)” value (WlaRD (C8J_1081) [3]) was “to form such a complex in the presence of dTDP-Fuc3NFo as shown”.
In the case of `Cc1cn([C@H]2C[C@H](O)[C@@H](COP(=O)(O)OP(=O)(O)O[C@H]3O[C@H](C)[C@@H](O)[C@H](NC=O)[C@H]3O)O2)c(=O)[nH]c1=O` [dTDP-Qui3NFo], the “X-ray crystal structure, 1.9 Å (soak, turnover in crystal)” value (WlaRD (C8J_1081) [2]; complex with THF, subunit B) is reported as “In subunit B, however, the products THF and dTDP-Qui3NFo were present”.
For `Cc1cn([C@H]2C[C@H](O)[C@@H](COP(=O)(O)OP(=O)(O)O)O2)c(=O)[nH]c1=O` [dTDP], the “X-ray crystal structure, 1.4 Å (cocrystal)” value (WlaRD (C8J_1081) [1]; complex with N^5-formyl-THF, also with N^10-formyl-THF) was “that of the enzyme complexed with N^5-formyl-THF and dTDP”.
